Experimental data: US12274683B2 (Bayer HealthCare LLC, priority 2019, dated 2025)

Tested on: inflammation/edema induced by carrageenan-injection into the footpads of Sprague Dawley (SD) rats
Test: Carrageenan-induced inflammation rat paw test (Example 3)
Settings: at necropsy about 24 h post-carrageenan, N=10, SE in line below
Method: Efficacy evaluation was based on gait analysis, von Frey absolute thresholds and ankle caliper differentials recorded over 24 h after initial carrageenan injection, and paw differential weights following euthanasia of the test subjects.
Experimental Design. Male Sprague Dawley (Envigo RMS, Inc., Indianapolis) were weighed on Day 1 (mean 285 g) and randomized by body weight into treatment groups. On Day 0-1, animals in Groups 3-11 were dosed with topical compounds on 2-minute intervals according to the dose schedules in Table 10. […] Gait and von Frey analyses were conducted at time points of 2 h, 4 h, 6 h, 8 h, and 24 h post-carrageenan injection; ankle caliper measurements were taken immediately following gait assessment. […]
Gait Analysis. […] Gait was scored visually as follows (descriptions refer to diseased leg): • 0=Normal, approximately equal ink staining to normal paw. • 1=Slight limp/pain. […]
Testing began with three applications of the 4.31 hair. […] Responses were recorded as either a 0 (no response) or a 1 (response). […]
Testing was done on hind (heel) portions of the hind paw. Testers monitored the animals for hyper-responding or freezing, in which case animals were left alone until calm.

In the case of COc1ccc2cc([C@H](C)C(=O)O)ccc2c1 [Naproxen (oral), Naproxen], the “Paw Weight Difference (R − L)” value was “‡0.410 g” and the “Paw Weight Difference (R − L)” value (listed as oral Naproxen) was “significantly reduced”.
